Measured values from US11918589B2, “Medicament for treatment of multiple sclerosis” (NIPPON CHEMIPHAR CO., LTD., priority 2016, dated 2024).

Legend:
EAE model animals = conditions: reported in the literature; cited from earlier work
EAE model rats [1] = test: Preventive continuous administration into the subarachnoid cavity of EAE model rats, pain threshold; type: in vivo, rat; conditions: preventive continuous administration into the subarachnoid cavity 10 nmol/5 μL/hr for about 14 days, FIG. 5
Method: A polystyrene catheter having an external diameter of 0.30 mm was detained in the subarachnoid cavity in each of 10 weeks old LEW/CrlCrlj female rats. After about one week from the detainment of the catheter for administration in the subarachnoid cavity, EAE model rats were prepared by the same method as that of Example 2.

EAE model rats [2] = test: Therapeutic repetitive oral administration to EAE model rats, pain threshold; type: in vivo, rat; conditions: orally twice a day 10 mg/kg over 21 days from Day 10 (average EAE score 2 or larger), FIG. 4
Method: (§1) EAE model rats were prepared by the same method as that of Example 2. […] For symptom observation, behaviors of the animals allowed to freely act were scored in accordance with the criteria shown in Table 111. The pain threshold was measured after the animals were put into a cage for measurement of which floor is made of a wire gauze, and acclimatized in the environment for 20 minutes or longer. The measurement of the pain threshold was performed according to the method of Chaplan et al. using 7 of von Frey filaments giving different stimulation intensities, and the 50% pain threshold was calculated by the up-down method of Dixon.
EAE model rats were prepared by the same method as that of Example 2.

EAE model rats [3] = test: Preventive repetitive oral administration to EAE model rats, pain threshold (von Frey, up-down method), symptoms (EAE score), weight; type: in vivo, rat; conditions: orally twice a day 10 mg/kg over 22 days from Day 0, von Frey 50% pain threshold, FIG. 3
Method: as §1

SMILES: CN1CC[C@]23c4c5ccc(O)c4O[C@H]2[C@@H](O)C=C[C@H]3[C@H]1C5 [morphine]
- analgesic action in allodynia observed in the EAE model (EAE model animals): markedly decreases

SMILES: O=C1CC(=O)N(c2cccc(-c3nnn[nH]3)c2)c2ccc3ccccc3c2N1.[Na] [compound B, 5-[3-(1H-tetrazol-5-yl)phenyl]-1H-naphtho[1,2-b][1,4]diazepine-2,4(3H,5H)-dione sodium salt]
- influence on the pain threshold (mechanical allodynia induced by EAE) (EAE model rats [1]): suppressed mechanical allodynia induced by EAE

SMILES: O=C1CC(=O)N(c2ccc(NC(=O)c3ccccc3I)cc2)c2ccc3ccccc3c2N1 [compound A, 5-[4-(2-iodobenzoyl)aminophenyl]-1H-naphtho[1,2-b][1,4]diazepine-2,4(3H,5H)-dione]
- influence on the pain threshold (mechanical allodynia induced by EAE) (EAE model rats [2]): suppressed mechanical allodynia induced by EAE
- influence on the pain threshold (mechanical allodynia induced by EAE) (EAE model rats [3]): continuously suppressed mechanical allodynia induced by EAE
